Here are results for 88 molecules from a melting point compilation (Tetko et al.; mined from patent text by program, amines drawn as free bases though some values may be those of a salt).

Structures are written as SMILES. Bounds are passed on as bounds.

Usually melting point stands for the temperature of the solid-liquid transition.

`CC(C)c1cc(C(=O)Nc2ccc3[nH]c(C(=O)O)cc3c2)oc1C(C)C` showed a melting point of 240 to 243 °C.

`CCCCNS(=O)(=O)CCCCn1c(COCC)nc2c(N)nc3ccccc3c21`: the melting point lay in the range of 148 to 149 °C. The molecule `Cn1ccc2cc(N3Cc4ccc(N5CCCC5)cc4C3=O)ccc21` registered a melting point of 252 to 253 °C. `C=CCSc1nc2ccc(OCC)cc2[nH]1`: the melting point was 147 to 149 °C. For the molecule `Cc1ccc(S(=O)(=O)OCC2COc3ccc4[nH]c(=O)[nH]c4c3O2)cc1` (stereo not drawn), the melting point fell in the range of 202 to 204 °C.

With `CC(=O)OCC1OC(n2cc(F)c(=O)[nH]c2=O)CC1OC(C)=O` (stereo not drawn), the melting point stood at 151 °C. In turn, `Nc1ccc(C(=O)N2CCCCc3sccc32)c(Cl)c1` returned a melting point of 176 to 179 °C. `COc1cc2ncc(N[C@@H]3C[C@H]4CC[C@@H]3C4)nc2cc1OC` had a melting point of 184 to 186 °C. Turning to `O=C(Nc1nccs1)C(CC1CCCC1)c1ccc(Cl)c(Cl)c1` (stereo not drawn), the melting point is 120 to 122 °C.

Turning to `CCCCCCCCCCCC(=O)c1ccc(CCOC(C)=O)cc1`, the melting point lay in the range of 32 to 33 °C. The molecule `Cc1cnc2c(C#N)c(C)nn2c1-c1cccnc1` returned a melting point of 207 to 209 °C. Regarding `COC(=O)c1cnn2c(C(F)(F)F)cc(Cl)nc12`, the melting point fell in the range of 126 to 127 °C. As for `CC1CCCC(=Cc2ccc(Cl)cc2)C1=O` (stereo not drawn), the melting point was found to be 59 °C.

On to `CNc1nc(-c2cc(C)c(O)c(C)c2)cc2ccc(CN3CCN(C)CC3)cc12`, for which the melting point lay in the range of 264 to 266 °C.

The molecule `CN(C)CCCNc1ccnc2cc3c(cc12)OCO3` had a melting point of 178 to 181 °C. `CC1(Cc2ccc(O)cc2)OCCO1` came in with a melting point of 61 to 64 °C. In the case of `COC(=O)c1c(OC(C)C)c(Br)c(Br)n1C` it was 42 to 45 °C; in that of `Cc1cn(Cc2ccccc2)c(=O)n(CC2(CO)CC2)c1=O`, 81.5 °C; in that of `CCCCn1c(=O)c2c(nc(C)n2S(=O)(=O)c2ccc(C)cc2)n(CCCC)c1=O`, 111 to 113 °C. `Cc1nnc(-c2ccc(F)cc2)n2nc(OCc3ncnn3C)c(-c3ccsc3)c12`: the melting point was 171 to 177 °C. `Cc1ccc(N)c(-c2nc(C(F)(F)F)cs2)c1` gave a melting point of 100 to 103 °C.

In the case of `CC(=O)Nc1ccccc1CN1CCC(CCC(=O)c2ccc(Nc3ncnc4c3CCC4)cc2)CC1`, the melting point was 219 to 222 °C. As for `O=C(O)CCCc1ccc(-c2cccc(Cl)c2Cl)cc1`, the figure is 70 to 71 °C; as for `Cc1nc2c3c(c(C(=O)NCC(O)CO)cc2n1C)CCC(c1ccccc1)O3` (stereo not drawn), 268 to 270 °C.

`COC(=O)c1oc2cc(OCc3nc(-c4ccccc4)oc3C)ccc2c1-c1ccccc1`: the melting point was 139 to 140 °C. `Cn1ccnc1S(=O)(=O)c1ccc(Cl)cc1` yielded a melting point of 164 to 166 °C. With `Cc1noc(NS(=O)(=O)c2cccc(Cl)c2Cl)c1Br`, the melting point fell in the range of 166 to 169 °C. With `CCCCc1nc(N)c(N=Nc2ccccc2)c(=O)[nH]1`, the melting point lay in the range of 266 to 270 °C. In the case of `CC(C)Cn1c(CO)nc2c(N)nc3c(c21)CCCC3` it was 226 °C. Take `CC(C)N1C(=O)NC(c2ccc3c(c2)OCCO3)c2cc3c(cc21)OCCO3` (stereo not drawn): the melting point is 92 to 95 °C.

In the case of `COc1ccc(NC(=O)c2ccc(C)cc2O)cc1`, the melting point is 185 to 186 °C. Molecule `O=c1oc(-c2ccccc2)cc(O)c1C(SC1CCCCC1)c1ccccc1` (stereo not drawn) showed a melting point of 189 to 191 °C.

As for `COc1nc2ccccc2nc1NC(=O)N1CCN(c2ccccc2)CC1`, the melting point was in the range of 147 to 149 °C.

Regarding `NS(=O)(=O)c1cccc(-c2cc(-c3nc(-c4ccc(Cl)c(Cl)c4)cc(C(F)(F)F)n3)ccn2)c1`, the melting point turned out to be 247 °C. The molecule `O=C1Nc2cc(Cl)ccc2C1c1ncnc2c1cnn2C1CCCC1` (stereo not drawn) showed a melting point of 288 to 291 °C. In the case of `COC(=O)c1c(Cl)cc(Cl)cc1NC(=O)CSc1ccc(NS(=O)(=O)c2ccc(Cl)cc2)cc1` it was 120 to 123 °C; in that of `CS(=O)(=O)c1ccc(C(=O)O)c(Cl)c1F`, 204 °C; in that of `O=C(OCOCOC(=O)c1c(F)cccc1F)c1c(F)cccc1F`, 52 to 53 °C. Take `CN1C(C)(C)CC(NC(=O)c2ccc(-c3nc4cc(Cl)c(Cl)cc4[nH]3)c(O)c2)CC1(C)C`: the melting point was over 250 °C. In turn, `Cc1c(Nc2c(C#N)cnc3sccc23)ccc2[nH]ccc12` gave a melting point of 255 °C. For `Cc1nc2cc3c(cc2n1C)C(=O)OC3=O`, the melting point was in the range of 310 to 315 °C. Take `CCCCCCCCCCCc1ccc(F)c(-c2nc(-c3c(F)cccc3F)nn2C)c1`: the melting point lay within 70 to 73 °C. `COc1cc(Nc2c(C#N)cnc3ccc(Br)cc23)c(Cl)cc1Cl` showed a melting point of 232 to 234 °C. As to `CC(C)(CO)COc1ccc(NC(=O)c2cc3ccccc3s2)cc1C#N`, the melting point fell in the range of 188 to 189 °C. `CC1CCCCN(C(=O)C2Cc3ccccc3N2c2ccc(=O)n(C)n2)C1` (stereo not drawn) came in with a melting point of 109 to 112 °C. As for `O=C1CCC(c2ccccc2)=NN1c1cc(-c2ccnc(Nc3cccc(Cl)c3)n2)ccn1`, the figure is 144 to 146 °C; as for `O=C(O)C1CCc2c(c3ccccc3n2C(=O)c2cccc(I)c2)C1` (stereo not drawn), 210 to 212 °C; as for `CNC(C(N)=O)c1cn(C2CCc3c(F)cc(F)cc3C2)c(=S)[nH]1` (stereo not drawn), 212 to 213 °C. The molecule `COc1ccc2cc(CNc3ccc(O)cc3)ccc2c1` registered a melting point of 139 to 140 °C. In the case of `Cn1c(SCc2ccccc2)nc2cnc3ccccc3c21` it was 160 to 163 °C; in that of `COCCOc1ccc2c(c1)OCC21C(=O)Nc2ccccc21` (stereo not drawn), 172 to 174 °C; in that of `Cc1cc(-c2ccccc2)n2nc(C)c(C#N)c2n1`, 175 to 177 °C. In turn, `COc1cccc(OC)c1-c1cc(C(=O)NC2(C(=O)O)C3CC4CC(C3)CC2C4)nn1-c1ccc(CNC(C)=O)c2ccccc12` (stereo not drawn) displayed a melting point of 211 °C.

With `COc1nc(C)c(C)nc1N(C)C(=O)N1CCN(c2cc([N+](=O)[O-])cc([N+](=O)[O-])c2)CC1`, the melting point was in the range of 133 to 135 °C. Regarding `Clc1ccc2[nH]c(SCc3nc4ccccc4s3)nc2c1`, the melting point is 176 to 180 °C. As for `COc1ccc(C2Sc3c(ccc4ccccc34)N(CCN(C)C)C(=O)C2OC(=O)c2cc(OC)c(OC)c(OC)c2)cc1` (stereo not drawn), the figure is 189 to 190 °C; as for `CN(C)C1=C(c2cccc(C(F)(F)F)c2)C(=O)OC1`, 110 °C. The molecule `NS(=O)(=O)c1ccc(-c2cnn(Cc3cc(F)c(F)cc3F)c(=O)c2-c2ccc(F)cc2)cc1` displayed a melting point of 236 to 238 °C. In the case of `CCCCc1ccccc1C1C(C(=O)OCC)=C(CCC)Nc2[nH]ncc21` (stereo not drawn), the melting point is 175 °C. `CC(=O)N[C@@H](C(=O)Oc1ccccc1)C(C)(C)SN=O` displayed a melting point of 120 °C. As for `CCNCCNC(=O)c1ccnc(F)c1`, the melting point was in the range of 51 to 52 °C. `O=Cc1ccc(C2=NOC(c3cc(Cl)cc(Cl)c3)(C(F)(F)F)C2)cc1Cl` (stereo not drawn): the melting point lay in the range of 129 to 130 °C. For the molecule `Oc1ccc(C(c2ccc(O)cc2)c2ccccc2CN2CCN(c3ccccc3Cl)CC2)cc1`, the melting point is 149 to 151 °C. `CCOc1cc(OCCCc2cn(-c3ccccn3)nc2OCC)ccc1CCC(=O)O` showed a melting point of 110 to 111 °C. As for `COc1cc(NC(=O)C(F)(F)F)ccc1N1CCN(CCN(C(=O)C2CCCCC2)c2ccccn2)CC1`, the figure is 144 to 148 °C. Regarding `CCOC(=O)c1cc2c([nH]c3ccccc32)c(CNc2ccccc2)n1`, the melting point was in the range of 256 to 258 °C.

Consider `ClC(c1ccccc1)(c1ccccc1)c1ccc2ccccc2c1`, for which the melting point lay within 92 to 93 °C. In the case of `CN(C)S(=O)(=O)c1cc2c(c(Cl)c1Cl)OC(C(=O)OCOC(=O)C(C)(C)C)C2` (stereo not drawn) it was 113 to 114 °C. In turn, `O=C(Nc1ccc(Cl)cc1C(=O)NCc1ccc2c(c1)OCO2)Oc1ccccc1` displayed a melting point of 149 to 150 °C. Turning to `Cc1cc(SC2=C(O)CC(CCc3ccc(O)cc3)(C3CCCC3)OC2=O)c(C(C)(C)C)cc1CO` (stereo not drawn), the melting point lay within 199 to 201 °C. On to `Cn1c(-c2ccc(OCC3CO3)cc2)nnc1C(F)(F)F` (stereo not drawn), for which the melting point lay in the range of 104 to 106 °C. Take `COc1ccc2c(c1)Nc1cccc(SC)c1S2`: the melting point was 152 to 154 °C. In turn, `CCOC(=O)c1cnn(C)c1C(=O)Nc1ccc2nc(-c3cccnc3)nn2c1` displayed a melting point of 217 °C.

`CCCNC(=O)c1c(Cl)cccc1OC(C)(CC)CC` came in with a melting point of 100 to 102 °C.

`Clc1ccc(C2(Cn3cncn3)OC2c2ccc(Cl)cc2Cl)cc1` (stereo not drawn): the melting point turned out to be 119 °C.

For the molecule `C=C(C)C(=O)OCCOc1ccc(N=Nc2ccc(C#N)cc2)cc1C#N`, the melting point came to 110 °C. Turning to `CN1C(=O)C=C[C@]2(C)c3ccc(-c4cccc5ccccc45)cc3CC[C@@H]12`, the melting point lay in the range of 172 to 173 °C. With `CCCCCCCCCCCCCCCCCC(=O)NCC(O)CO` (single isomer, unassigned; (+)), the melting point was 112 to 114 °C.

For `N#Cc1ccc(CCc2ccc(CN3C(=O)c4ccccc4C3=O)cc2)cc1`, the melting point fell in the range of 194 to 197 °C. Consider `Cc1cccc(C)c1N1CCN(c2c(C)cccc2C)C1=N`, for which the melting point was in the range of 188 to 190 °C.

With `CCCCCCCNC(=O)Nc1ccccc1C(=O)NC1CCN(Cc2ccccc2)CC1`, the melting point was 134 °C.

`CC(C)(N)c1ccc(-c2nc(Nc3ccc(-n4ccnn4)cc3)ncc2C#N)cc1` gave a melting point of 139 to 140 °C.

Molecule `Cn1c(CO)nc2cc(Br)cnc21` had a melting point of 142 to 144 °C. In turn, `Cc1cnn(-c2ccc(C(=O)N3Cc4cccn4Cc4ccccc43)cc2)c1` came in with a melting point of 179 to 181 °C. `NC(=O)c1ccc(C(F)(F)F)c(N)c1`: the melting point lay within 147 to 149 °C.

Take `COC1(c2csc(Sc3ccc4c(c3)OCC/C4=N\O)c2)CCOCC1`: the melting point was 137 to 138 °C. In the case of `CN1CCN(c2c(-c3ccccc3)sc3ccccc23)CC1`, the melting point was in the range of 118 to 120 °C. As for `CC(C)(C)C(=O)C(C(Sc1ccccc1)c1ccc(F)cc1)n1cncn1` (stereo not drawn), the figure is 175 °C.
